According to US10619210B2, “Predicting response to epigenetic drug therapy” (THE JOHNS HOPKINS UNIVERSITY, priority 2014, dated 2020):

What was measured:
Type in all cases: cell-based, human
[1] = test system: A2780 ovarian cancer cells; test: qRT-PCR of AIM genes in A2780 after AZA or carboplatin; settings: 500 nM for 72 hours, then 7 days recovery without drug
Experimental: FIG. 9A-9D. AIM genes are induced by TSA but not by chemotherapeutic agents. […] FIG. 9B: Box plots of AIM genes after TSA treatment. FIG. 9C: Box plots of AIM genes in DKO cells compared to the parent HCT116 cell line. The orange lines indicate 2 fold change. FIG. 9D: A2780 ovarian cancer cells were treated with 500 nM AZA or carboplatin for 72 hours, then allowed to recover for 7 days without drug before RNA was isolated. qRT-PCR was performed for IFI27, IL-15, IRF7, and MAGEB2 genes. Blue bars indicate Mock treatment, purple indicate AZA, and orange indicate carboplatin. Fold change is plotted on the Y axis. Each bar represents the average and standard deviation of three biological replicates. […]
After total cellular RNA was extracted using the Trizol method (Life Technologies, Carlsbad, Calif.), RNA concentration was determined using the Nanodrop machine and software (Thermo Fisher Scientific, Rockville, Md.). 1 μg total RNA was used to generate cDNA with the QuantiTect Reverse Transcription Kit (Qiagen, Venlo, Netherlands). Quantitative reverse transcription PCR (q-RT-PCR) of CD274, DDX58, HLA-C, IFI6, IFI27, IL-15, IRF7, IRF9, MAEL, and MAGEB2 mRNA was performed using TaqMan assays (Life Technologies, Carlsbad, Calif.) and the Applied Biosystems 7500 Fast real-time PCR system and software. […]

[2] = test system: colon cancer cell lines; test: AIM gene expression in colon cancer cell lines after TSA; settings: six colon cancer cell lines, 300 nM TSA for 18 hours
Experimental: FIG. 9A-9D. AIM genes are induced by TSA but not by chemotherapeutic agents. […] FIG. 9B: Box plots of AIM genes after TSA treatment. FIG. 9C: Box plots of AIM genes in DKO cells compared to the parent HCT116 cell line. The orange lines indicate 2 fold change. FIG. 9D: A2780 ovarian cancer cells were treated with 500 nM AZA or carboplatin for 72 hours, then allowed to recover for 7 days without drug before RNA was isolated. qRT-PCR was performed for IFI27, IL-15, IRF7, and MAGEB2 genes. Blue bars indicate Mock treatment, purple indicate AZA, and orange indicate carboplatin. Fold change is plotted on the Y axis. Each bar represents the average and standard deviation of three biological replicates.
It is especially noteworthy that the DKO cell line (haplo-insufficient for DNMT1 and null for DNMT3B), which is shown as a genetic mimic of AZA treatment (FIG. 2B, FIG. 7) induces significant upregulation for most AIM genes (FIG. 9A, C). To determine whether this was specific to DNMT inhibitors, we also treated cells with an HDAC inhibitor (TSA) that has been used extensively in our laboratory. […] This activation appears to be in response to epigenetic agents and not the result of a general cell stress response that could be elicited by chemotherapeutics such as carboplatin.

[3] = test system: colorectal cancer cell lines; test: AZA-induced immune gene demethylation and re-expression, colorectal cancer cell lines
Excerpt: (§1) The canonical effects of AZA have traditionally been described as demethylation of promoter regions and subsequent expression of the silenced gene. Many of the pathway changes in response to AZA, such as increased expression of immune genes, may be the result of downstream events elicited by a small number of hubs related to promoter DNA demethylation and associated gene upregulation. We investigated hub networks in our current pan-cancer analyses by first searching, in a genome-wide analysis using the Infinium 450K methylation platform, for genes that have AZA-induced demethylation of cancer-specific, DNA hypermethylated, CpG islands associated with proximal promoter regions. The total number of such demethylated genes in the cell lines from breast, ovarian and colorectal cancers was 162 (FIG. 8A). […]
(§2) All data were analyzed using R: A Language and Environment for Statistical Computing. […] These normalized values were then analyzed utilizing the Gene Set Enrichment Analysis by the Broad Institute and data packages (C5BP, Reactome, KEGG). […] TCGA HumanMethylation27K level 3 data was downloaded, standard deviation of Infinium β-values across all primary cancer samples were calculated, and the top one thousand most variable probes were chosen for hierarchical cluster analysis. […]

[4] = test system: 63 cancer cell lines (26 breast, 14 colorectal, and 23 ovarian); test: GSEA gene sets common to 63 cancer cell lines (breast, colorectal, ovarian) after AZA
Experimental: (§3) In the context of the above background, we explored further our understanding of the global pathway changes after treatment with low doses of the DNMTi AZA in cell lines from multiple common human cancers. A total of 63 cancer cell lines (26 breast, 14 colorectal, and 23 ovarian) were treated with low dose, 500 nM, AZA for three days. DNA and RNA were isolated at multiple time points following initial drug application and analyzed for genome-wide changes in DNA methylation and gene expression (Agilent 44K Expression Array). […] These gene sets could be broadly divided into four categories including cell cycle control (cell cycle, mitosis, meiosis), DNA replication (DNA replication and packaging, transcription), mRNA splicing and translation, and immune response (FIG. 1C,D; Tables 2 and 3). […] See also FIG. 1A. […] See also FIG. 1B.
63 cell lines (26 breast cancer, 14 colorectal cancer, 23 ovarian cancer) were used in these experiments. Breast cell lines included BT20, BT474, CAMA1, EFM19, MDA453, MDA468, MDA361, MCF7, MDA231, T47D, HCC1500, and HCC1187 obtained from the American Type Tissue Collection; HCC1419, HCC38, EFM192A, HCC1569, HCC1937, HCC1954, MDA175, MDA415, MDA436, SUM149, SUM159, SKBR3, ZR751, and ZR7530 from Dr. Dennis Slamon. All cells were maintained under recommended conditions. Colorectal cell lines were all obtained from the American Type Tissue Collection and were maintained under recommended conditions. These included CACO-2, Colo201, Colo205, Colo320, DLD1, HCT116, HT29, Lovo, RKO, SK-CO1, SNUC-1, SW48, SW480, and SW620. Ovarian cell lines were obtained from the laboratory of Dr. Dennis Slamon and included A2780, CAOV3, DOV13, EFO27, ES2, Hey, HEYC2, Kuramochi, OAW28, OAW42, OV167, OV2008, OV90, OVCA429, OVCA432, OVMANA, OVCAR3, OVCAR5, OVKATE, PEO14, SKOV3, TOV112D, and TykNu; these were maintained under the ATCC recommended conditions.
Cell lines were treated with 500 nM of AZA or carboplatin (Sigma; St. Louis, Mo.) for 72 hours while in log-growth phase, changing the media and drug every 24 hours for AZA treatment. To select an appropriate chemotherapy control, the carboplatin dose that had the similar growth inhibitory effect to 500 nM AZA after 10 days was selected. Cells were harvested at 1, 3, 7, 10, 14, 21, or 28 days following initial application of drug. […]
as §2

[5] = test system: lung cancer cell lines; test: GSEA of lung cancer cell lines treated with the same AZA dosing schedule; settings: 14 lung cancer cell lines
[6] = test system: colorectal cancer cell lines; test: GSEA of Agilent 44K expression arrays after low-dose AZA, colorectal cancer cell lines
Experimental: as §3, with “1B. […]” for “1B.”
as §2

[7] = test system: ovarian cancer cell lines; test: GSEA of Agilent 44K expression arrays after low-dose AZA, ovarian cancer cell lines
Experimental: as §3, with “1B. […]” for “1B.”
as §2

[8] = test system: breast cancer cell lines; test: AZA-induced immune gene demethylation and re-expression, breast cancer cell lines
Excerpt: as §1, §2

[9] = test system: ovarian cancer cell lines; test: AZA-induced immune gene demethylation and re-expression, ovarian cancer cell lines
Excerpt: as §1, §2

[10] = test system: breast cancer cell lines; test: GSEA of Agilent 44K expression arrays after low-dose AZA, breast cancer cell lines
Experimental: as §3, with “1B. […]” for “1B.”
as §2

[11] = test system: HCC1569, ZR751, COLO201, HT29, A2780 and TYKNU cells; test: qRT-PCR validation of AIM genes in two cell lines from each cancer type; settings: two cell lines per cancer type
Experimental: After total cellular RNA was extracted using the Trizol method (Life Technologies, Carlsbad, Calif.), RNA concentration was determined using the Nanodrop machine and software (Thermo Fisher Scientific, Rockville, Md.). 1 μg total RNA was used to generate cDNA with the QuantiTect Reverse Transcription Kit (Qiagen, Venlo, Netherlands). Quantitative reverse transcription PCR (q-RT-PCR) of CD274, DDX58, HLA-C, IFI6, IFI27, IL-15, IRF7, IRF9, MAEL, and MAGEB2 mRNA was performed using TaqMan assays (Life Technologies, Carlsbad, Calif.) and the Applied Biosystems 7500 Fast real-time PCR system and software. Human β-actin mRNA was used as the endogenous control. The ΔΔCT method was used to calculate relative expression levels. All qRT-PCR assays were carried out in triplicate and then repeated with new cDNA synthesis. Minus RT controls (reverse transcriptase negative cDNA synthesis reactions) were performed for at least one sample per plate.

[12] = test system: cell lines from breast, ovarian and colorectal cancers; test: AZA-induced promoter CpG island demethylation and re-expression (Infinium 450K), all three cancer types
Excerpt: The canonical effects of AZA have traditionally been described as demethylation of promoter regions and subsequent expression of the silenced gene. Many of the pathway changes in response to AZA, such as increased expression of immune genes, may be the result of downstream events elicited by a small number of hubs related to promoter DNA demethylation and associated gene upregulation. We investigated hub networks in our current pan-cancer analyses by first searching, in a genome-wide analysis using the Infinium 450K methylation platform, for genes that have AZA-induced demethylation of cancer-specific, DNA hypermethylated, CpG islands associated with proximal promoter regions. The total number of such demethylated genes in the cell lines from breast, ovarian and colorectal cancers was 162 (FIG. 8A). […] The highest percentages of these demethylation and re-expression events were again seen in immune genes; 26%, of the 162 genes were categorized as immune related (FIG. 8B,C). Overall, immune gene demethylation and re-expression was again highest in ovarian cancer cell lines (53.8%) followed by colorectal (42.8%) and breast (30.7%) cancer cell lines (FIG. 8B). Of note, amongst these 162 genes, 8 (4.9%) were also in our AIM gene set (BNIP3, HERC5, ICAM1, IRF7, MX1, MST1R, PSMB8, TCRIG1) with IRF7, a member of the interferon regulatory factor family of transcription factors in particular being notable for being a canonical demethylated and reexpressed gene.
Cell lines were treated with 500 nM of AZA or carboplatin (Sigma; St. Louis, Mo.) for 72 hours while in log-growth phase, changing the media and drug every 24 hours for AZA treatment. To select an appropriate chemotherapy control, the carboplatin dose that had the similar growth inhibitory effect to 500 nM AZA after 10 days was selected. Cells were harvested at 1, 3, 7, 10, 14, 21, or 28 days following initial application of drug. DNA and RNA were obtained using standard protocols. RNA from 63 cell lines was sent for the Agilent 44K Expression Array and DNA from 53 cell lines was sent for the Illumina 450K Methylation Array.
All data were analyzed using R: A Language and Environment for Statistical Computing. Expression normalization of cell line data was performed using the package Limma as previously described. Data was normalized within each tumor type (breast, colorectal, and ovarian). These normalized values were then analyzed utilizing the Gene Set Enrichment Analysis by the Broad Institute and data packages (C5BP, Reactome, KEGG). […] TCGA HumanMethylation27K level 3 data was downloaded, standard deviation of Infinium β-values across all primary cancer samples were calculated, and the top one thousand most variable probes were chosen for hierarchical cluster analysis. […]

[13] = 500 nM AZA for three days, NES>2.15, FDR<0.25

## N.N.O=C([O-])C1(C(=O)[O-])CCC1.[Pt+2] [carboplatin]
[1]
  expression of AIM genes IFI27, IRF7, IL15, MAGEB2 (qRT-PCR): does not lead to overexpression

## CC(/C=C/C(=O)NO)=C\[C@@H](C)C(=O)c1ccc(N(C)C)cc1 [TSA]
[2]
  regulation of AIM genes: regulates subsets of AIM genes but not as uniformly or robustly as DKO cells or AZA treated cells

## Nc1ncn([C@@H]2O[C@H](CO)[C@@H](O)[C@H]2O)c(=O)n1 [AZA, 5-azacitidine]
[3]
  immune gene demethylation and re-expression (percent of cell lines): 42.8%
[4]; 500 nM AZA for three days
  immune gene sets showing upregulation by AZA (15/16 gene sets): 93.7%
[4]; 500 nM AZA for three days, NES<-2.15, FDR<0.25
  downregulated GSEA gene sets common between the three cancer types: 52 gene sets
[4]; [13]
  upregulated GSEA gene sets common between the three cancer types: 80 gene sets
[4]; range over breast, colorectal, ovarian
  enrichment for immunomodulatory pathways in all three cancers: 14.4-31.3%
[5]
  gene sets common to breast, colon, and ovarian cell lines also upregulated in the lung cancer cell lines (76/80): 95%
  significantly upregulated pathways that were immune related: 23.3%
[6]; [13]
  Overall immune pathway upregulation (percent of upregulated GSEA gene sets that are immune-related): 14.4%
[6]; GSEA NES>2.15, FDR<0.25
  upregulation of cancer testis antigens gene set (percent of cell lines): 64.3%
[7]; ovarian cancers, 500 nM AZA for three days, NES>2.15, FDR<0.25
  Overall immune pathway upregulation (percent of upregulated GSEA gene sets that are immune-related): 31.3%
[7]; ovarian, GSEA NES>2.15, FDR<0.25
  upregulation of cancer testis antigens gene set (percent of cell lines): 39.1%
[8]
  immune gene demethylation and re-expression (percent of cell lines): 30.7%
[1]
  expression of AIM genes IFI27, IRF7, IL15, MAGEB2 (qRT-PCR): increased
[9]
  immune gene demethylation and re-expression (percent of cell lines): 53.8%
[10]; [13]
  Overall immune pathway upregulation (percent of upregulated GSEA gene sets that are immune-related): 16.9%
[10]; GSEA NES>2.15, FDR<0.25
  upregulation of cancer testis antigens gene set (percent of cell lines): 19.2%
[11]
  qRT-PCR validation of AZA-induced re-expression of selected AIM (interferon response) genes: Each chosen gene validated
  qRT-PCR validation of upregulation of selected antigen presentation pathway genes: validated
[12]
  share of the 162 demethylated/re-expressed genes categorized as immune related: 26%
  subset of the 162 genes showing demethylation and re-expression in all three cancer types: 4.9%
[12]; 8 (4.9%)
  number of the 162 demethylated/re-expressed genes also in AIM gene set: 8 genes
[12]; basal β ≥0.5, Δβ(AZA-Mock)≤-0.25, >2-fold expression
  total number of demethylated (and re-expressed) genes: 162 genes
